US20120322124A1, “CONTROL OF CONTAMINANT MICROORGANISMS IN FERMENTATION PROCESSES WITH SYNERGISTIC FORMULATIONS CONTAINING STABILIZED CHLORINE DIOXIDE AND QUATERNARY AMMONIUM COMPOUND” (E. I. DU PONT DE NEMOURS AND COMPANY, priority 2010, published 2012)

How the values were obtained:
Format in all cases: cell-based
[1] = test system: Lactobacillus brevis; experiment: Checkerboard assay of SCD with a quaternary ammonium compound against Lactobacillus brevis; set-up: key: no inhibition of growth (NI); partial inhibition (PI); complete inhibition (CI); conditions: SCD 0 ppm, MRS broth pH 5.5, 28 hours at 32° C.
Source text: In this example, stabilized chlorine dioxide (SCD) and a quaternary ammonium chloride (QAC) mixture were used in a checkerboard assay to determine whether their interaction was synergistic against Lactobacillus brevis. The checkerboard assay method is used to analyze interactions between compounds by mixing them in increasing concentrations to determine whether the compounds act synergistically, additively or antagonistically. (See, M. Najjar, D. Kashtanov, M Chikindas, Letters in Applied Microbiology, vol. 45 (2007) 13-18.) L. brevis was cultured overnight in MRS broth (deMan Rogosa and Sharp broth, Difco Laboratories, Inc., Sparks, M.D.) at 32° C. The culture was then diluted and resuspended in fresh MRS broth adjusted to pH 5.5. The number of bacteria in the resuspended culture was determined using standard plate counts. Samples were diluted (1:10) in sterile phosphate-buffered saline (Sigma-Aldrich Co., St. Louis, Mo.) and plated onto the surface of MRS plates. The resuspended culture […] was then used to fill the wells of a 96 well plate (Becton, Dickinson and Co., Franklin Lakes, N.J.). SCD (FermaSure® fermentation additive, E. I. du Pont de Nemours and Co., Wilmington Del.) and a quaternary ammonium compound (BTC 1010, a solution of didecyl dimethyl ammonium chloride, DDAC, Stepan Company, Northfield, Ill.) were then added at the concentrations shown in the “checkerboard” plate diagram below. The plate was covered and incubated for 28 hours at 32° C. Following incubation, the plate was removed and the optical density of each well was determined using a plate reader at 630 nm (PowerWave, BioTek Instruments Inc., Winooski, Vt.). Based on the optical density, each well was scored to determine whether there was no inhibition of growth (NI), partial inhibition (PI), or complete inhibition (CI).
To determine whether any synergistic activity occurred between SCD and the quaternary ammonium compound, the fractional inhibitory concentration (FIC) was determined using the formula:
FIC=[SCD]/MICSCD+[DDAC]/MICDDAC
where [SCD] and [DDAC] are the concentrations of SCD and BTC 1010 that result in partial inhibition and MICSCD and MICDDAC are the minimum inhibitor concentration of SCD and DDAC, respectively. Synergy between the two antimicrobials is determined when the resulting FIC is <1.0.
In this example, SCD (FermaSure® fermentation additive, E. I. du Pont de Nemours and Co., Wilmington Del.) and a second quaternary ammonium compound (BTC 2125, a mixture of n-alkyl dimethyl benzyl ammonium chlorides and n-alkyl dimethyl ethylbenzyl ammonium chlorides, ADBAC/ADEBAC, Stepan Company, Northfield, Ill.) were used in a checkerboard assay to determine whether their interaction was synergistic against Lactobacillus brevis. L. brevis was cultured as above, resuspended in MRS at pH 5.5, and then added […] the wells of a 96 well plate (Becton Dickinson, Franklin Lakes, N.J.). […] Following incubation, the plate was removed and the optical density of each well was determined using a plate reader at 630 nm. Based on the optical density, each well was scored to determine whether there was no inhibition (NI), partial inhibition (PI), or complete inhibition (CI).
To determine whether any synergistic activity occurred between SCD and the ADBAC/ADEBAC quaternary ammonium compound, the fractional inhibitory concentration (FIC) was determined as above using the formula: […]

[2] = test system: Viable bacteria; experiment: Bench-scale successive fermentations with yeast recycle stream from a molasses-based ethanol plant, viable bacteria enumerated
Protocol: In this example, samples of recycle streams comprising primarily inoculant yeast were collected from a molasses-based ethanol plant in Brazil. The samples were used to complete bench-scale fermentations in which the samples were treated with a combination of SCD (FermaSure® fermentation additive, E. I. du Pont de Nemours and Co., Wilmington Del.) with didecyl dimethyl ammonium chloride (BTC 1010, a solution of didecyl dimethyl ammonium chloride, DDAC, same as in Example 1), as quaternary compound. The treated samples were used to carry out successive 8-hour long fermentations, using recovered yeast at the end of each cycle to begin the next run. Viable bacteria were enumerated over 5 fermentation cycles. Results are provided in Table 3 where ND means the combination was not tested.

[3] = test system: lactic acid bacteria; experiment: Molasses-based recycle stream treated with SCD, QAC or both: viable bacteria
Protocol: (§1) In this example, a molasses-based fermentation medium was prepared and inoculated with both yeast and lactic acid bacteria. The medium comprised various components as follows:
(§2) Following inoculation, the mixed culture was grown overnight in the molasses medium, after which a recycle stream was prepared by centrifuging the broth at 3000 rpm for 5 minutes. The resulting pellet was separated from the supernatant and reconstituted using sterile deionized water, then adjusted to pH 3.0 using sulfuric acid. 5 ml portions of the reconstituted pellet were then treated as follows: • 1. Untreated • 2. QAC only (60 ppm) • 3. SCD (45 ppm) • 4. SCD/QAC (45 ppm/60 ppm)
(§3) The SCD was FermaSure® fermentation additive, E. I. du Pont de Nemours and Co., Wilmington Del. The quaternary ammonium compound (QAC) was the same DDAC (BTC 1010, Stepan Company, Northfield, Ill.) as used in Example 1.
(§4) Samples were stored in a shaking incubator at 32° C. for 2 hours following which 0.1 ml aliquots were serially diluted and plated on selective media to enumerate surviving yeast and bacteria cells. […] Following this cycle, the SCD and SCD/QAC treated samples were centrifuged as before, and the number of viable yeast and bacterial cells in the resulting pellet was determined.

[4] = test system: yeast; experiment: Molasses-based recycle stream treated with SCD, QAC or both: viable yeast; conditions: QAC only (60 ppm), pH 3.0, 32° C.
Protocol: as §1, §2, §3, §4

[5] = SCD 0 ppm, DDAC 60 ppm, yeast recycle stream, 8-hour fermentations

CCCCCCCCCC[N+](C)(C)CCCCCCCCCC.[Cl-] [DDAC, didecyl dimethyl ammonium chloride]
inhibition of growth score based on optical density at 630 nm ([1]; DDAC 2 ppm): PI
inhibition of growth score based on optical density at 630 nm ([1]; DDAC 4 ppm): PI
inhibition of growth score based on optical density at 630 nm ([1]; DDAC 5 ppm): PI
inhibition of growth score based on optical density at 630 nm ([1]; DDAC 6 ppm): PI
inhibition of growth score based on optical density at 630 nm ([1]; DDAC 7 ppm): CI
Log Viable Bacteria Cycle 1 [2, 5]: 7.79
Log Viable Bacteria Cycle 2 [2, 5]: 7.97
efficacy against viable bacteria, in words ([2]; treatments of Table 3 (45 ppm SCD and 60 ppm DDAC; 60 ppm DDAC alone), through 5 cycles of fermentation): did not result in any significant inactivation of bacteria
Viable Cells (2 hrs) Bacteria ([3]; QAC only (60 ppm), pH 3.0, 32° C., 2 hours): 8.1 logCFU per milliliter
number of viable bacteria, in words ([3]; treatments of Table 4 (QAC 60 ppm, SCD 45 ppm, SCD/QAC 45 ppm/60 ppm)): did not result in any reduction in viable bacterial cells
Viable Cells (2 hrs) Yeast [4]: 8.8 logCFU per milliliter
